Like-named read-outs stand apart in the source and are kept apart here. Where a SMILES comes first, the peptide text is derived from it. Bridges are numbered along the chain shown (N, C = ends). Where no end group is shown, it is not given here. [ ]: non-standard residue; d: D form. The star is where a group is joined. Palmitoyl = CCCCCCCCCCCCCCCC(=O)*; Aib = CC(C)(N)C(=O)O

Test [1] deals with T1, hGIPR (Homo sapiens, UniProt P48546).
T1 construct: expressed in transfected cells; host or cells: CHO
T1 sequence (P48546 22-466): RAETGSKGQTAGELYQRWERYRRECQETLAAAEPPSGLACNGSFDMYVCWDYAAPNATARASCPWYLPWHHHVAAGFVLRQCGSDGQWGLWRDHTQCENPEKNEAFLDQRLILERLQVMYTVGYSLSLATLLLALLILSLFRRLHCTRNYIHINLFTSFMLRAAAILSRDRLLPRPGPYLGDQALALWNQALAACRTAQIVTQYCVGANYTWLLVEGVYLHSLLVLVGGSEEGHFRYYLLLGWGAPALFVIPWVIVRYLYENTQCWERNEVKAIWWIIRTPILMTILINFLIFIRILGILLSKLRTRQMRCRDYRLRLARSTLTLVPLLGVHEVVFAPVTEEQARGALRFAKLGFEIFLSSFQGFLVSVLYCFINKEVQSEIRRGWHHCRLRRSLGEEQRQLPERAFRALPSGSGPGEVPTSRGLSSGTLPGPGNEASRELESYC
Briefly: hGIPR-mediated cAMP induction assay in CHO cell line. Type of test: cell-based.

Test [2] concerns the target T2, hGLP-1R (Homo sapiens, UniProt P43220).
T2 construct: expressed in transfected cells; host or cells: CHO
Briefly: hGLP-1R-mediated cAMP induction assay in CHO cell line.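 Also: CHO cells expressing human GLP-1R, treated 30 min at 37 °C, intracellular cAMP measured by competitive fluorescent immunoassay and converted via a cAMP standard curve.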 Type of test: cell-based.
Excerpt: The cAMP in the sample or standard competes with horseradish peroxidase (HRP)-labeled cAMP conjugate for binding sites on the anti-cAMP antibodies. In the absence of cAMP, most of the HRP-cAMP conjugate is bound to the antibody. Increasing concentrations of cAMP competitively decrease the amount of bound conjugate, thus decreasing measured HRP activity.
Assay kit: CatchPoint™ Cyclic-AMP Fluorescent Assay Kit (Molecular Devices, Product # R8088)
Cell lines: CHO hGLP1R, CHO hGIPR
Cell seeding: CHO hGLP1R or CHO hGIPR cells: 10,000 cells/well/100 uL at 37° C. 5% CO2 overnight.
Gently aspirate off media and wash the cells with KRBG Buffer, 100 uL/well.
Incubate the plate for 10 min at room temperature. Then add the KRBG buffer with 3× final concentration of the tested samples (5-foled series diluted from 5,000 nM), 50 uL/well. Incubate the plate at 37° C. 5% CO2 for 30 min.
Add 50 uL of Lysis buffer to each well and put the plate on a shaker for 10 min.
Place 40 uL of samples and analyze in appropriate wells. And test the cAMP concentration in each sample by following the manufacture's instruction.
Detect the fluorescence signal at Ex: 490 nm and Em: 530 nm. Transfer the FI signal to cAMP concentration by the cAMP standard curve. The Dose-response curve and EC50 were obtained by logistic fitting of Origin 8.

T2 sequence (P43220 24-463): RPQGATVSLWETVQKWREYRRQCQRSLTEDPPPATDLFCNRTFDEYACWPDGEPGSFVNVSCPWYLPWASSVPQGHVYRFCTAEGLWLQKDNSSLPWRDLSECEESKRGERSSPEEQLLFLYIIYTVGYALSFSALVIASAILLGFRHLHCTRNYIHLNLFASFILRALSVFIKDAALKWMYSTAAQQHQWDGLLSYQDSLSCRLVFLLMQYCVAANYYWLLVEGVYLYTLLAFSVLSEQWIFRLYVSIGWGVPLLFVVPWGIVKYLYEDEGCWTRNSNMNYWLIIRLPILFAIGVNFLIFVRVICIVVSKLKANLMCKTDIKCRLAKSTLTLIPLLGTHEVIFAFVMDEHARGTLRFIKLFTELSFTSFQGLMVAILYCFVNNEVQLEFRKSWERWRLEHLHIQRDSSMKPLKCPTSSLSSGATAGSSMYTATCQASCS

For the compound `CC[C@H](C)[C@H](NC(=O)[C@H](Cc1ccccc1)NC(=O)[C@H](CCC(=O)O)NC(=O)[C@H](CCCNC(=N)N)NC(=O)[C@@H](NC(=O)[C@H](C)NC(=O)[C@H](CCC(=O)O)NC(=O)[C@@H]1CCCCNC(=O)CC[C@H](NC(=O)[C@H](CO)NC(=O)[C@H](Cc2ccc(O)cc2)NC(=O)[C@H](CC(=O)O)NC(=O)[C@H](CO)NC(=O)[C@@H](NC(=O)[C@H](Cc2ccccc2)NC(=O)[C@@H](NC(=O)CNC(=O)[C@H](CCC(=O)O)NC(=O)C(C)(C)NC(=O)[C@@H](N)Cc2ccc(O)cc2)[C@@H](C)O)[C@@H](C)O)C(=O)N[C@@H](Cc2ccc(O)cc2)C(=O)N[C@@H](CCSC)C(=O)N[C@@H](CCC(=O)O)C(=O)N1)C(C)C)C(=O)N[C@@H](C)C(=O)N[C@@H](Cc1c[nH]c2ccccc12)C(=O)N[C@@H](CC(C)C)C(=O)N[C@H](C(=O)N[C@@H](CCCCN)C(=O)NCC(N)=O)C(C)C` [Compound 052-2] (H-Y[Aib]EGTFTSDYSEYMEKEAVREFIAWLVKG-NH2; lactam 12-16), in test [1] (Table 3, against native GIP), the “GIP Receptor Relative Potency” value was found to be 146.8. In test [2] (Table 3, against native GLP-1), the “GLP-1 Receptor Relative Potency” value was 132.8.
As to `CC[C@H](C)[C@H](NC(=O)[C@H](Cc1ccccc1)NC(=O)[C@H](CCC(=O)O)NC(=O)[C@H](CCCNC(=N)N)NC(=O)[C@@H](NC(=O)[C@H](C)NC(=O)[C@H](CCC(=O)O)NC(=O)[C@H](CCCCN)NC(=O)[C@H](CCC(=O)O)NC(=O)[C@H](CCSC)NC(=O)[C@H](Cc1ccc(O)cc1)NC(=O)[C@@H](NC(=O)[C@H](CO)NC(=O)[C@H](Cc1ccc(O)cc1)NC(=O)[C@H](CC(=O)O)NC(=O)[C@H](CO)NC(=O)[C@@H](NC(=O)[C@H](Cc1ccccc1)NC(=O)[C@@H](NC(=O)CNC(=O)[C@H](CCC(=O)O)NC(=O)C(C)(C)NC(=O)[C@@H](N)Cc1ccc(O)cc1)[C@@H](C)O)[C@@H](C)O)[C@@H](C)CC)C(C)C)C(=O)N[C@@H](C)C(=O)N[C@@H](Cc1c[nH]c2ccccc12)C(=O)N[C@@H](CC(C)C)C(=O)N[C@H](C(=O)N[C@@H](CCCCN)C(=O)NCC(=O)N[C@@H](CCCNC(=N)N)C(=O)N[C@@H](CCCNC(=N)N)C(=O)N[C@@H](CCCNC(=N)N)C(=O)N[C@@H](CCCNC(=N)N)C(=O)N[C@@H](CCCNC(=N)N)C(=O)N[C@@H](CCCNC(=N)N)C(N)=O)C(C)C` [Compound 075] (H-Y[Aib]EGTFTSDYSIYMEKEAVREFIAWLVKGRRRRRR-NH2; N-terminus assumed), the “GIP Receptor Relative Potency” value in test [1] (Table 3, against native GIP) is 8.3. The “GLP-1 Receptor Relative Potency” value in test [2] (Table 3, against native GLP-1) is listed as 77.7.
On to “Y[Aib]EGTFTSDYSIYMEKEAVREFIAWLVKGGPSSGAPPPSKKKKKK(Palmitoyl)-NH2 [Compound 078]”, for which the EC50 was determined as 0.019 nM in test [1] (Table 3, CHO hGIPR cells) and 0.145 nM in test [2] (Table 3, CHO hGLP1R cells). In test [1] (Table 3, against native GIP), the “GIP Receptor Relative Potency” value is recorded as 352.6. In addition, in test [2] (Table 3, against native GLP-1), the “GLP-1 Receptor Relative Potency” value worked out at 754.
Consider `CCCCCCCCCCCCCCCC(=O)NCCCC[C@H](NC(=O)[C@H](CO)NC(=O)[C@@H]1CCCN1C(=O)[C@@H]1CCCN1C(=O)[C@@H]1CCCN1C(=O)[C@H](C)NC(=O)CNC(=O)[C@H](CO)NC(=O)[C@H](CO)NC(=O)[C@@H]1CCCN1C(=O)CNC(=O)CNC(=O)[C@H](CCCCN)NC(=O)[C@@H](NC(=O)[C@H](CC(C)C)NC(=O)[C@H](Cc1c[nH]c2ccccc12)NC(=O)[C@H](C)NC(=O)[C@@H](NC(=O)[C@H](Cc1ccccc1)NC(=O)[C@H](CCC(=O)O)NC(=O)[C@H](CCCNC(=N)N)NC(=O)[C@@H](NC(=O)[C@H](C)NC(=O)[C@H](CCC(=O)O)NC(=O)[C@H](CCCCN)NC(=O)[C@H](CCC(=O)O)NC(=O)[C@H](CCSC)NC(=O)[C@H](Cc1ccc(O)cc1)NC(=O)[C@@H](NC(=O)[C@H](CO)NC(=O)[C@H](Cc1ccc(O)cc1)NC(=O)[C@H](CC(=O)O)NC(=O)[C@H](CO)NC(=O)[C@@H](NC(=O)[C@H](Cc1ccccc1)NC(=O)[C@@H](NC(=O)CNC(=O)[C@H](CCC(=O)O)NC(=O)C(C)(C)NC(=O)[C@@H](N)Cc1ccc(O)cc1)[C@@H](C)O)[C@@H](C)O)[C@@H](C)CC)C(C)C)[C@@H](C)CC)C(C)C)C(N)=O` [Compound 068], for which the EC50 stood at 0.037 nM in test [1] (Table 3, CHO hGIPR cells) and 0.169 nM in test [2] (Table 3, CHO hGLP1R cells). In addition, the “GIP Receptor Relative Potency” value in test [1] (Table 3, against native GIP) turned out to be 38.9. Besides, the “GLP-1 Receptor Relative Potency” value in test [2] (Table 3, against native GLP-1) was found to be 566.
As to `CC[C@H](C)[C@H](NC(=O)[C@H](CO)NC(=O)[C@H](Cc1ccc(O)cc1)NC(=O)[C@H](CC(=O)O)NC(=O)[C@H](CO)NC(=O)[C@@H](NC(=O)[C@H](Cc1ccccc1)NC(=O)[C@@H](NC(=O)CNC(=O)[C@H](CCC(=O)O)NC(=O)C(C)(C)NC(=O)[C@@H](N)Cc1ccc(O)cc1)[C@@H](C)O)[C@@H](C)O)C(=O)N[C@@H](Cc1ccc(O)cc1)C(=O)N[C@@H](CCSC)C(=O)N[C@@H](CCC(=O)O)C(=O)N[C@@H](CCCCN)C(=O)N[C@@H](CCC(=O)O)C(=O)N[C@@H](C)C(=O)N[C@H](C(=O)N[C@@H](CCCNC(=N)N)C(=O)N[C@@H](CC(C)C)C(=O)N[C@@H](Cc1ccccc1)C(=O)N[C@H](C(=O)N[C@@H](CCC(=O)O)C(=O)N[C@@H](Cc1c[nH]c2ccccc12)C(=O)N[C@@H](CC(C)C)C(=O)N[C@@H](CCCCN)C(=O)N[C@@H](CC(N)=O)C(=O)NCC(N)=O)[C@@H](C)CC)C(C)C` [Compounds 024] (H-Y[Aib]EGTFTSDYSIYMEKEAVRLFIEWLKNG-NH2; N-terminus assumed), the concentration for a half-maximal effect (EC50) in test [1] (Table 1, CHO/hGIPR cells, read-out: GIPR EC50) came out at 0.1 nM; in test [2] (Table 1, CHO/hGLP-1R cells, read-out: GLP-1R EC50), 0.309 nM. Further, the “GIPR Relative Potency” value in test [1] (Table 1, against native GIP) came out at 500%. The “GIP Receptor Relative Potency” value in test [1] (Table 3, against native GIP) worked out at 500. For the same compound, the “GLP-1R Relative Potency” value in test [2] (Table 1, against native GLP-1) is 354%. Further, in test [2] (Table 3, against native GLP-1), the “GLP-1 Receptor Relative Potency” value was determined as 354.
Regarding `CCCCCCCCCCCCCCCC(=O)NCCCC[C@H](NC(=O)[C@H](CO)NC(=O)[C@@H]1CCCN1C(=O)[C@@H]1CCCN1C(=O)[C@@H]1CCCN1C(=O)[C@H](C)NC(=O)CNC(=O)[C@H](CO)NC(=O)[C@H](CO)NC(=O)[C@@H]1CCCN1C(=O)CNC(=O)CNC(=O)[C@H](CCCCN)NC(=O)[C@@H](NC(=O)[C@H](CC(C)C)NC(=O)[C@H](Cc1c[nH]c2ccccc12)NC(=O)[C@H](C)NC(=O)[C@@H](NC(=O)[C@H](Cc1ccccc1)NC(=O)[C@H](CCC(=O)O)NC(=O)[C@H](CCCNC(=N)N)NC(=O)[C@@H](NC(=O)[C@H](C)NC(=O)[C@H](CCC(=O)O)NC(=O)[C@H](CCCCN)NC(=O)[C@H](CCC(=O)O)NC(=O)[C@H](CCSC)NC(=O)[C@H](Cc1ccc(O)cc1)NC(=O)[C@@H](NC(=O)[C@H](CO)NC(=O)[C@H](Cc1ccc(O)cc1)NC(=O)[C@H](CC(=O)O)NC(=O)[C@H](CO)NC(=O)[C@@H](NC(=O)[C@H](Cc1ccccc1)NC(=O)[C@@H](NC(=O)CNC(=O)[C@H](CCC(N)=O)NC(=O)C(C)(C)NC(=O)[C@@H](N)Cc1ccc(O)cc1)[C@@H](C)O)[C@@H](C)O)[C@@H](C)CC)C(C)C)[C@@H](C)CC)C(C)C)C(N)=O` [Compound 120] (H-Y[Aib]QGTFTSDYSIYMEKEAVREFIAWLVKGGPSSGAPPPSK(Palmitoyl)-NH2), the half-maximal effective concentration (EC50) in test [1] (Table 3, CHO hGIPR cells) is 0.039 nM; in test [2] (Table 3, CHO hGLP1R cells), 0.253 nM. Besides, the “GIP Receptor Relative Potency” value in test [1] (Table 3, against native GIP) came out at 294.9. In test [2] (Table 3, against native GLP-1), the “GLP-1 Receptor Relative Potency” value is 586.6.

The term EC50 denotes the midpoint of the concentration-response curve.

The values are drawn from patent US9453062B2, “Glucose dependent insulinotropic polypeptide analogs, pharmaceutical compositions and use thereof” (Beijing Hanmi Pharmaceutical Co., Ltd., priority 2011, dated 2016).
